Data as given in US8475804B2 (priority 2009, dated 2013).
Counter-ions that a name gives are not always drawn. Like-named read-outs stand apart in the source and are kept apart here. Residues, ends and D or L forms follow the SMILES beside them. *: point of attachment. Cbz = O=C(OCc1ccccc1)*

System: Ebola virus
Experiment: microbe, parasite or virus in culture
Type: cell-based, Ebolavirus (EBOV)
Conditions: for Emax: read-out: Max Effect

Structure (SMILES) | IC50 (Zaire ebolavirus, Vero) [µM] | Emax (Zaire ebolavirus, Vero) [%] | other results
O=[N+]([O-])c1ccccc1OCCCCCOc1ccccc1[N+](=O)[O-] [1,5′-Bis(2-Nitrophenoxy)pentane] | – | – | Max Effect: 0.531; IC50 (read-out: IC50): 13 µM
COc1cc(C=C2CCCC(=Cc3ccc(O)c(OC)c3)C2=O)ccc1O [2,6-Divanillylidenecyclohexanone] | 6.4 | 93.2 | –
CCCC[C@H]1C(=O)O[C@H](C)[C@H](NC(=O)c2cccc(NC=O)c2OC)C(=O)O[C@@H](C)[C@@H]1OC(=O)CC(C)C [2-Methoxy-antimycin A3] | – | – | Max Effect: 0.791; IC50 (read-out: IC50): 1.2 µM
Nc1ncnc2c1c(I)cn2[C@@H]1O[C@H](CO)[C@@H](O)[C@H]1O [5-Iodotubercidin] | – | – | Max Effect: 0.369
N[C@H]1CC[C@@H](c2ccc(Cl)c(Cl)c2)c2ccccc21 [(1S,4S)-Desmethyl Sertraline, Hydrochloride] | 1.3 | 68.8 | –
COc1cc(C[C@H]2C(=O)OC[C@@H]2Cc2ccc(OC)c(OC)c2)ccc1O [(−)-Arctigenin] | – | – | Max Effect: 0.411
O=c1cnn([C@@H]2O[C@H](CO)[C@@H](O)[C@H]2O)c(=O)[nH]1 [Agent 6-Azauridine, 6-Azauridine] | < 1 | 80 | –
CCN(CCCc1ccccc1)CCCc1ccccc1 [Alverine Citrate] | – | 49.5 | –
CCOC(=O)C1=C(COCCN)NC(C)=C(C(=O)OC)C1c1ccccc1Cl (centres unmarked) [Amlodipine Besylate] | 13.2 | 52.8 | –
COc1ccc(C[C@H]2NC[C@H](O)[C@H]2OC(C)=O)cc1 [Anisomycin] | – | – | Max Effect: 0.900; IC50 (read-out: IC50): < 1.6 µM
CCOC(=O)c1c(CSc2ccccc2)n(C)c2cc(Br)c(O)c(CN(C)C)c12 [Arbidol] | 6 | 59.2 | –
CC(=O)OC[C@H]1O[C@@H]([S-])[C@H](OC(C)=O)[C@@H](OC(C)=O)[C@@H]1OC(C)=O.CCP(CC)CC.[Au+] [Auranofin] | – | – | IC50 (read-out: IC50): < 1 µM
CN1CCCC(n2nc(Cc3ccc(Cl)cc3)c3ccccc3c2=O)CC1 (centres unmarked) [Azelastine] | 122 | 64.8 | –
CO/C1=C\C(C)=C\[C@@H](C)[C@@H](O)[C@@H](C)C/C(C)=C/C=C/[C@H](OC)[C@@H]([C@@H](C)[C@@H](O)[C@H](C)[C@@]2(O)C[C@@H](O)[C@H](C)[C@@H](C(C)C)O2)OC1=O [Bafilomycin A1] | – | – | Max Effect: 0.880; IC50 (read-out: IC50): 0.019 µM
Nc1nc(-c2nn(Cc3ccccc3F)c3ncccc23)ncc1C1CC1 [Bay 41-2272] | – | – | Max Effect: 0.900; IC50 (read-out: IC50): < 0.5 µM
CC(O)(CS(=O)(=O)c1ccc(F)cc1)C(=O)Nc1ccc(C#N)c(C(F)(F)F)c1 (centres unmarked) [Bicalutamide] | – | 46.4 | –
C[C@H]1CCC/C=C/[C@@H]2C[C@H](O)C[C@H]2[C@H](O)/C=C/C(=O)O1 [Brefeldin A] | – | – | Max Effect: 0.900; IC50 (read-out: IC50): < 1.6 µM
CC(C)C[C@H]1C(=O)N2CCC[C@H]2[C@]2(O)O[C@](NC(=O)[C@@H]3C=C4c5cccc6[nH]c(Br)c(c56)C[C@H]4N(C)C3)(C(C)C)C(=O)N12 [Bromocriptine Mesylate] | – | 42.2 | –
O=C(/C=C/c1ccc(O)c(O)c1)OCCc1ccccc1 [CAPE] | – | – | Max Effect: 0.368
Nc1nc2ccc(Cl)cc2c2nc(-c3ccco3)nn12 [CGS 15943] | – | 44.9 | –
NCCNS(=O)(=O)c1ccc(Cl)c2ccncc12 [CKI7] | – | – | Max Effect: 0.565; IC50 (read-out: IC50): 10.7 µM

Structure (SMILES) | IC50 (Zaire ebolavirus, Vero) [µM] | Emax (Zaire ebolavirus, Vero) [%] | other results
CNc1ccc2oc(C[C@H]3O[C@@]4(CC[C@H]3C)O[C@H]([C@H](C)C(=O)c3ccc[nH]3)[C@H](C)C[C@H]4C)nc2c1C(=O)O [Calcimycin A23187] | – | – | Max Effect: 0.789; IC50 (read-out: IC50): 1.1 µM
CC(C)[C@H](NC(=O)OCc1ccccc1)C(=O)N[C@H](C=O)Cc1ccccc1 [Carbobenzoxy-valinyl-phenylalaninal] (Cbz-Val-Phe-aldehyde) | 2.9 | 60.7 | –
N#CC(C#N)=NNc1ccc(OC(F)(F)F)cc1 [Carbonyl cyanide 4-(trifluoromethoxy)phenylhydrazone] | 4.5 | 75.2 | –
CC(=O)OCC1=C(C(=O)O)N2C(=O)[C@@H](NC(=O)CSc3ccncc3)[C@H]2SC1 [Cephapirin Sodium] | 9.8 | 66.2 | –
COc1ccc2cc1Oc1ccc(cc1)C[C@H]1c3c(cc4c(c3Oc3cc5c(cc3OC)CCN(C)[C@@H]5C2)OCO4)CCN1C [Cepharanthine] | 5.6 | 65.2 | –
COCc1c(C(C)C)nc(C(C)C)c(/C=C/[C@@H](O)C[C@@H](O)CC(=O)O)c1-c1ccc(F)cc1 [Cerivastatin Sodium] | 0.1 | 44.3 | –
CN1CCN(C(c2ccccc2)c2ccc(Cl)cc2)CC1 (centres unmarked) [Chlorcyclizine Hydrochloride] | – | 45.6 | –
CC(=O)O.CC(=O)O.NC(=N\CCCCCC/N=C(N)/N=C(\N)Nc1ccc(Cl)cc1)/N=C(\N)Nc1ccc(Cl)cc1 [Chlorhexidine Diacetate] | – | – | Max Effect: 0.543; IC50 (read-out: IC50): 6.1 µM
CN(C)CCOC(C)(c1ccccc1)c1ccc(Cl)cc1 (centres unmarked) [Chlorphenoxamine Hydrochloride] | 5 | 78.9 | –
CO[C@@H]1[C@H](O)C[C@@H](O[C@@H]2C[C@H](Oc3cc4cc5c(c(O)c4c(O)c3C)C(=O)[C@@H](O[C@H]3C[C@@H](O[C@H]4C[C@@H](O[C@H]6C[C@](C)(O)[C@@H](OC(C)=O)[C@H](C)O6)[C@H](O)[C@@H](C)O4)[C@H](O)[C@@H](C)O3)[C@H]([C@H](OC)C(=O)[C@@H](O)[C@@H](C)O)C5)O[C@H](C)[C@@H]2OC(C)=O)O[C@@H]1C [Chromomycin A3] | – | – | Max Effect: 0.629; IC50 (read-out: IC50): 0.4 µM
CC(C)C(=O)OCC(=O)[C@@]12O[C@H](C3CCCCC3)O[C@@H]1C[C@H]1[C@@H]3CCC4=CC(=O)C=C[C@]4(C)[C@H]3[C@@H](O)C[C@@]12C [Ciclesonide] | 16 | 51.2 | –
Cc1cc(C2CCCCC2)n(O)c(=O)c1 [Ciclopirox Olamine] | – | 43.1 | –
CC1(C)C[C@@H]1C(=O)N/C(=C\CCCCSC[C@H](N)C(=O)O)C(=O)O [Cilastatin Sodium] | 8.8 | 91.2 | –
C[C@@H]1C[C@@H]([C@H](O)CC2CC(=O)NC(=O)C2)C(=O)[C@@H](C)C1 [Cycloheximide] | < 1.6 | 90 | –
CN1CCC(=C2c3ccccc3C=Cc3ccccc32)CC1 [Cyproheptadine Hydrochloride] | – | 49.3 | –
C#C[C@]1(O)CC[C@H]2[C@@H]3CCC4=Cc5oncc5C[C@]4(C)[C@H]3CC[C@@]21C [Danazol] | 12.9 | 54.6 | –
COc1cc2c(cc1OC)[C@@H]1C(=O)c3ccc4c(c3O[C@@H]1CO2)C=CC(C)(C)O4 [Deguelin] | 0.5 | 41.8 | –
CC/C(=C(/CC)c1ccc(O)cc1)c1ccc(O)cc1 [Diethylstilbestrol] | – | 43.6 | –
c1ccc2c(c1)[I+]c1ccccc1-2 [Diphenyleneiodonium chloride] | < 1.6 | 80 | –
CCCCCCCCCCCC[N+](C)(C)CCOc1ccccc1 [Domiphen Bromide] | 7.5 | 71.5 | –
CN(C)CCOC(C)(c1ccccc1)c1ccccn1 (centres unmarked) [Doxylamine Succinate] | 5.2 | 73.1 | –

Structure (SMILES) | IC50 (Zaire ebolavirus, Vero) [µM] | Emax (Zaire ebolavirus, Vero) [%] | other results
CCOc1ccc(/C=C2\NCCc3cc(OCC)c(OCC)cc32)cc1OCC [Drotaverine Hydrochloride] | – | 36.7 | –
O=C([O-])CN(CCN(CC(=O)[O-])CC(=O)[O-])CC(=O)[O-].[Ca+2].[Na+].[Na+] [Edetate Calcium Disodium] | 6.6 | 84.1 | –
CC[C@H]1CN2CCc3cc(OC)c(OC)cc3[C@@H]2C[C@@H]1C[C@H]1NCCc2cc(OC)c(OC)cc21 [Emetine dihydrochloride hydrate] | 0.3 | 89.3 | –
CC[C@H](C)[C@H](NC(=O)[C@H]([C@@H](C)CC)N(C)C(C)=O)C(=O)N[C@H](C(=O)N[C@@H](CC(C)C)C(=O)[C@@]1(C)CO1)[C@@H](C)O [Epoxomicin] | – | – | Max Effect: 0.466
C[C@]12CC[C@H]3C(=CCc4cc(O)ccc43)[C@@H]1CCC2=O [Equilin] | – | 42.4 | –
COc1ccc(-c2nc(C(=O)N3CCN(C)CC3)sc2-c2ccc(OC)cc2)cc1 [FR122047] | – | – | Max Effect: 0.688; IC50 (read-out: IC50): 3.7 µM
COC(=O)Nc1nc2ccc(Sc3ccccc3)cc2[nH]1 [Fenbendazole] | 5.8 | 50 | –
CC(C(=O)[O-])c1cccc(Oc2ccccc2)c1.CC(C(=O)[O-])c1cccc(Oc2ccccc2)c1.[Ca+2] (centres unmarked) [Fenoprofen Calcium] | – | – | Max Effect: 0.454
CC1=C(/C=C/C(C)=C/C=C/C(C)=C/C(=O)Nc2ccc(O)cc2)C(C)(C)CCC1 [Fenretinide] | – | 42.6 | –
Nc1[nH]c(=O)ncc1F [Flucytosine] | 4.4 | 79.3 | –
Fc1ccc(C(c2ccc(F)cc2)N2CCN(C/C=C/c3ccccc3)CC2)cc1 [Flunarizine Hydrochloride] | – | 40.2 | –
Clc1cc(Cl)c(OCC#CI)cc1Cl [Haloprogin] | 2.9 | 58.8 | –
Oc1c(Cl)cc(Cl)c(Cl)c1Cc1c(O)c(Cl)cc(Cl)c1Cl [Hexachlorophene] | 3.2 | 71.3 | –
CN1CCCN(C(c2ccccc2)c2ccc(Cl)cc2)CC1 (centres unmarked) [Homochlorcyclizine dihydrochloride] | 8.7 | 50.8 | –
CCCCCC(=O)O[C@]1(C(C)=O)CC[C@H]2[C@@H]3CCC4=CC(=O)CC[C@]4(C)[C@H]3CC[C@@]21C [Hydroxyprogesterone Caproate] | 3.7 | 71.9 | –
O=C(Nc1cc(C(F)(F)F)cc(C(F)(F)F)c1)c1cc(Cl)ccc1O [IMD-0354] | 3.1 | 66.1 | –
NC(=O)C[C@H](N)C(=O)O [L-Asparagine] | 7.2 | 77.1 | –
C/C1=C/C(=O)O[C@@H]2C[C@@H](CC[C@H](C)/C=C\CC1)O[C@@](O)([C@@H]1CSC(=O)N1)C2 [Latrunculin B] | – | – | Max Effect: 0.621; IC50 (read-out: IC50): 0.4 µM
CC(=O)N[C@@H](CC(C)C)C(=O)N[C@@H](CC(C)C)C(=O)N[C@H](C=O)CCCNC(=N)N [Leupeptin HCl] | 3.2 | 86.5 | –
C=CC(C)(C)c1cc(/C=C/C(=O)c2ccc(O)cc2)c(OC)cc1O [Licochalcone-A] | – | – | Max Effect: 0.522; IC50 (read-out: IC50): 4.7 µM
CN(C)C(=O)C(CCN1CCC(O)(c2ccc(Cl)cc2)CC1)(c1ccccc1)c1ccccc1 [Loperamide Hydrochloride] | – | – | Max Effect (Hydrochloride): 0.418
